Entries after “also recorded” stand apart in the source; their conditions may differ.
How the values were obtained:
Format in all cases: in vivo, human
CD63 [1] = assay: CD63 level in CSF of type 3 Gaucher disease patients on treatment (Olink Explore; LEAP trial); conditions: GD3 patients, baseline, 26 weeks and 52 weeks on combination treatment of venglustat and imiglucerase
Description: For the measurement of protein levels in CSF, the following protocol was employed: Biomarker expression in CSF was measured using four Olink® Explore panels (Cardiometabolic, Inflammation, Neurology, and Oncology), as described, e.g., by Wik et al. (“Proximity Extension Assay in Combination with NextGeneration Sequencing for High-throughput Proteome-wide Analysis, 2021, Mol Cell Proteomics 20, 100168). Briefly, 10 μL of CSF samples and Olink controls were placed into a 384-well Sample Source Plate and then diluted 1:10, 1:100, 1:1000 and 1:100,000 in 384-well Sample Diluent Plates using Mosquito and Dragonfly liquid handlers (both from SPT Labtech). For immunoreaction, these diluted samples were mixed with the Olink® probes (DNA oligo-conjugated antibodies) in 384-well Incubation Plates using the Mosquito handler and incubated at 4° C. for 16-24 hours. The following day, reagent mixtures for the first PCR amplification step (PCR1 step) were added to the immunoreaction mixtures using the Dragonfly handler, and PCR1 reaction for the pre-amplification step was conducted using ProFlex PCR System (Applied Biosciences). […] The four libraries were analyzed by Next Generation Sequencing using NovaSeq 6000 (Illumina). […]

CD63 [2] = assay: CD63 level in plasma of Fabry patients on treatment (Olink profiling; Sanofi-Venglustat Phase II ACT/LTS trial)
Description: CD63 was measured by Olink® profiling, as described below, using the Olink® Target96 Neuro-Exploratory panel (Olink Proteomics AB, Uppsala, Sweden) according to the manufacturer's instructions.
Protein detection can be performed using Olink® (Olink Proteomics AB, Uppsala, Sweden) profiling in accordance with the manufacturer's recommended protocols (for exemplary methods, see, e.g., Assarsson et al., PLoS ONE (2014) 9(4):e95192; and Jabbari et al., Journal of Neurology, Neurosurgery & Psychiatry (2019) 90:768-773). The Proximity Extension Assay (PEA) technology used for the Olink® protocol has been well described (Assarsson et al., 2014, supra), and enables 92 analytes per panel to be analysed simultaneously, using 1 μL of each sample. In brief, pairs of oligonucleotide-labelled antibody probes bind to their targeted protein, and if the two probes are brought in close proximity the oligonucleotides will hybridize in a pair-wise manner. The addition of a DNA polymerase leads to a proximity-dependent DNA polymerization event, generating a unique PCR target sequence. The resulting DNA sequence can subsequently be detected and quantified using a microfluidic real-time PCR instrument (Biomark HD, Fluidigm). Data is then quality controlled and normalized using an internal extension control and an inter-plate control, to adjust for intra- and inter-run variation. The final assay read-out is presented in Normalized Protein expression (NPX) values, which is an arbitrary unit on a log 2-scale where a high value corresponds to a higher protein expression. All assay validation data (e.g., detection limits, intra- and inter-assay precision data, etc.), experimental protocols, and data processing are available on the manufacturer's website (www.olink.com).
The ACT/LTS samples were taken from the Sanofi-Venglustat Phase II trial. This trial consisted only of male patients. The Sanofi-Venglustat Phase II trial was a longitudinal study, and patient plasma was collected at 6 set intervals: Baseline (0 weeks), 12 weeks, 26 weeks, 52 weeks, 104.2 weeks, and 156.4 weeks. There are missing timepoints for some patients. During this trial, all patients were treated with venglustat (a substrate reduction therapy-SRT).
Cohort 1 is a collection of plasma samples provided by Dr. Gavin Oudit from the University of Alberta. Briefly, these plasma samples were from a mix of male and female patients with ages ranging from 25 to 68. They were non-longitudinal samples (e.g. 1 sample per patient), and the plasma samples were a mix of treated Fabry patients (enzyme replacement therapy-ERT), untreated Fabry patients, and healthy control subjects.
Cohort 2 is a collection of plasma samples provided by Dr. Michael Mauer from the University of Minnesota. […]

lyso-GL3 = lyso-GL3 level in plasma of Fabry patients on venglustat (ESI-LC-MS/MS)
Description: (§1) Glycosphingolipids (lyso-GL1, GL3, and lyso-GL3) were measured by ESI-LC-MS/MS according to the method described in Murugesan et al., Am J Hematol. (2016) 91(11):1082-1089. In brief, 20 μL aliquots of plasma were added to 1 mL of chloroform:methanol (2:3) in an Eppendorf tube, mixed and then centrifuged. Supernatant was removed and extracted with chloroform (220 μL) and water (520 μL) by mixing and centrifugation. The upper phase was re-extracted with chloroform and added to the lower phase. The combined sample was dried, resuspended in 100 μL methanol:water (9:1) and injected into an LC-MS/MS system for tandem mass spectroscopic analysis. Separation of glycosphingolipids and other matrix components was achieved using UPLC under gradient conditions with two mobile phases: 0.1% formic acid in water; and 0.1% formic acid in acetonitrile. Mass spectrometry (MS) was performed in select ion monitoring mode, typically using the parent (M+H^+) ion transition (e.g. m/z 462.5>282.4 for lyso-GL1). Assays were calibrated using known glycosphingolipid standards (dimethylpsychosine, 13C6-labelled lyso-GL3 (GelbChem), and C17-GL3 (Matreya LLC, cat no. 1523) as internal standards for lyso-GL1, lyso-GL3, and GL3 respectively).
(§2) The ACT/LTS samples were taken from the Sanofi-Venglustat Phase II trial. This trial consisted only of male patients. […]

GL3 = GL3 level in plasma of Fabry patients on venglustat (ESI-LC-MS/MS); conditions: Fabry disease patients, venglustat clinical trial over time
Description: as §1, §2

[3] = Fabry disease patients vs healthy controls, during the trial period

## CC(C)(NC(=O)O[C@@H]1CN2CCC1CC2)c1csc(-c2ccc(F)cc2)n1 [venglustat, (3S)-1-azabicyclo[2.2.2]octan-3-yl N-{2-[2-(4-fluorophenyl)-1,3-thiazol-4-yl]propan-2-yl}carbamate]
CD63 [1]
  change of CD63 levels in CSF on treatment: consistently led to a decrease in CD63 levels
CD63 [2]; [3]
  return of CD63 to control levels: do not return to control levels during the trial period
CD63 [2]; Fabry disease patients, baseline to 156.4 weeks on treatment
  response of CD63 to treatment: decrease over a period of 30 months towards a healthy level; also recorded: show a response to treatment
CD63 [2]; Fabry disease patients, venglustat treatment
  time at which CD63 response to treatment is observed: 12 weeks
CD63 [2]; Fabry disease patients, venglustat treatment, baseline to 156 weeks
  first significant decrease in CD63 (estimated marginal mean, log 2): ≤ 26 week
lyso-GL3; [3]
  return of lyso-GL3 to control levels: do not return to control levels during the trial period
lyso-GL3; Fabry disease patients, venglustat clinical trial over time
  response of lyso-GL3 to treatment: show a response to treatment
GL3
  response of GL3 to treatment: show a response to treatment

— patent US20250354999A1, “BIOMARKERS OF LYSOSOMAL STORAGE DISEASE” (Genzyme Corporation, priority 2022, published 2025)
